Activity calls are given as the source filed them. No cut-off for these calls is given here.
What was measured:
MV4-11 = test: Antiproliferative activity against human MV4-11 cells assessed as inhibition of cell proliferation at 20 uM incubated for 48 hrs by CCK8 assay relative to control; type: functional
RAW264.7 [1] = test: Antiinflammatory activity against mouse RAW264.7 cells assessed as inhibition of LPS-NO production by Griess reagent based assay; type: functional, cell-based
RAW264.7 [2] = test: Antiinflammatory activity against mouse RAW264.7 cells assessed as inhibition of LPS-NO production at 20 uM by Griess reagent based assay relative to control; type: functional
RAW264.7 [3] = test: Cytotoxicity against mouse RAW264.7 cells assessed as reduction in cell viability incubated for 24 hrs by MTT assay; type: toxicity, cell-based; conditions: raw264.7, 24 h
Mus musculus [4] = test: Antiinflammatory activity in LPS-induced BALB/c sepsis mouse model assessed as decrease in serum IL-6 level at 2.5 mg/kg preadministered with compound via gavage for 14 days followed by LPS stimulation and measured after 6 hrs by ELISA; type: functional, organism-based; conditions: time 342.0 hrs
Mus musculus [5] = test: Antiinflammatory activity in LPS-induced BALB/c sepsis mouse model assessed as decrease in serum creatinine level at 2.5 mg/kg preadministered with compound via gavage for 14 days followed by LPS stimulation and measured after 6 hrs; type: functional, organism-based; conditions: time 342.0 hrs
Mus musculus [6] = test: Antiinflammatory activity in LPS-induced BALB/c sepsis mouse model assessed as decrease in inflammatory cells in spleen at 2.5 mg/kg preadministered with compound via gavage for 14 days followed by LPS stimulation and measured after 6 hrs by H&E staining based analysis; type: functional, organism-based; conditions: time 342.0 hrs
Mus musculus [7] = test: Antiinflammatory activity in LPS-induced BALB/c sepsis mouse model assessed as decrease in infiltration of macrophages in spleen at 2.5 mg/kg preadministered with compound via gavage for 14 days followed by LPS stimulation and measured after 6 hrs by immunohistochemistry analysis; type: functional, organism-based; conditions: time 342.0 hrs
Mus musculus [8] = test: Antiinflammatory activity in LPS-induced BALB/c sepsis mouse model assessed as decrease in serum BUN level at 2.5 mg/kg preadministered with compound via gavage for 14 days followed by LPS stimulation and measured after 6 hrs; type: functional, organism-based; conditions: time 342.0 hrs
Mus musculus [9] = test: Antiinflammatory activity in LPS-induced BALB/c sepsis mouse model assessed as increase in SOD level in serum at 2.5 mg/kg preadministered with compound via gavage for 14 days followed by LPS stimulation and measured after 6 hrs; type: functional, organism-based; conditions: time 342.0 hrs
Mus musculus [10] = test: Antiinflammatory activity in LPS-induced BALB/c sepsis mouse model assessed as decrease in serum ALT level at 2.5 mg/kg preadministered with compound via gavage for 14 days followed by LPS stimulation and measured after 6 hrs; type: functional, organism-based; conditions: time 342.0 hrs
Mus musculus [11] = test: Antiinflammatory activity in LPS-induced BALB/c sepsis mouse model assessed as decrease in MDA level in serum at 2.5 mg/kg preadministered with compound via gavage for 14 days followed by LPS stimulation and measured after 6 hrs; type: functional, organism-based; conditions: time 342.0 hrs
Mus musculus [12] = test: Antiinflammatory activity in LPS-induced BALB/c sepsis mouse model assessed as increase in GSH level in serum at 2.5 mg/kg preadministered with compound via gavage for 14 days followed by LPS stimulation and measured after 6 hrs; type: functional, organism-based; conditions: time 342.0 hrs
Mus musculus [13] = test: Antiinflammatory activity in LPS-induced BALB/c sepsis mouse model assessed as decrease in serum TNF-alpha level at 2.5 mg/kg preadministered with compound via gavage for 14 days followed by LPS stimulation and measured after 6 hrs by ELISA; type: functional, organism-based; conditions: time 342.0 hrs
Mus musculus [14] = test: Antiinflammatory activity in LPS-induced BALB/c sepsis mouse model assessed as decrease in cell gap in spleen at 2.5 mg/kg preadministered with compound via gavage for 14 days followed by LPS stimulation and measured after 6 hrs by H&E staining based analysis; type: functional, organism-based; conditions: time 342.0 hrs
RAW264.7 [15] = test: Antiinflammatory activity in LPS-induced mouse RAW264.7 cells assessed as reduction in ROS level at 10 uM pretreated with compound followed by LPS stimulation and measured after 1 hrs by flow cytometric analysis; type: functional, cell-based
Mus musculus [16] = test: Antiinflammatory activity in LPS-induced BALB/c sepsis mouse model assessed as decrease in serum AST level at 2.5 mg/kg preadministered with compound via gavage for 14 days followed by LPS stimulation and measured after 6 hrs; type: functional, organism-based; conditions: time 342.0 hrs
Mus musculus [17] = test: Antiinflammatory activity in LPS-induced BALB/c sepsis mouse model assessed as decrease in serum IL-1beta level at 2.5 mg/kg preadministered with compound via gavage for 14 days followed by LPS stimulation and measured after 6 hrs by ELISA; type: functional, organism-based; conditions: time 342.0 hrs

Structure (SMILES)	inhibition at 20 µM (MV4-11) [%]	other results
c1cc(-c2cc(C3CCNCC3)n[nH]2)ccn1	51.2	Activity (RAW264.7 [1]): inactive
Cn1ccc2c(-c3cc(C4CCNCC4)n[nH]3)ccnc21	23.8	–
CCNc1cc(-c2cc(C3CCNCC3)n[nH]2)ccn1	15.4	–
Clc1cncc(Cl)c1-c1cc(C2CCNCC2)n[nH]1	19.6	–
Fc1cccc(-c2cc(C3CCNCC3)n[nH]2)c1	0.1	–
Clc1cc(-c2cc(C3CCNCC3)n[nH]2)ccn1	35.6	–
Brc1cc(-c2cc(C3CCNCC3)n[nH]2)ccn1	20.7	–
CN1CCC(c2cc(-c3ccncc3)[nH]n2)CC1	3.39	–
Clc1cnccc1-c1cc(C2CCNCC2)n[nH]1	32.8	–
Cc1cc(-c2cc(C3CCNCC3)n[nH]2)ccn1	0.1	–
c1cc(-c2cc(C3CCNCC3)n[nH]2)ncn1	0.2	–
CNc1cc(-c2cc(C3CCNCC3)n[nH]2)ccn1	30.2	–
CN1CCN(c2ccc(-c3cc(C4CCNCC4)n[nH]3)cc2)CC1	8.5	inhibition at 20 µM (RAW264.7 [2]): > 50%
c1cncc(-c2cc(C3CCNCC3)n[nH]2)c1	0.2	–
Fc1cc(-c2cc(C3CCNCC3)n[nH]2)ccn1	0.1	–
c1cc(-c2cc(C3CCNCC3)n[nH]2)cs1	0.1	–
N#Cc1ccc(-c2cc(C3CCNCC3)n[nH]2)cc1	6	inhibition at 20 µM (RAW264.7 [2]): > 50%
COc1cc(-c2cc(C3CCNCC3)n[nH]2)ccn1	19.3	–
c1ncc(-c2cc(C3CCNCC3)n[nH]2)cn1	0.1	–
Fc1ccc(-c2cc(C3CCNCC3)n[nH]2)c(F)c1	9.8	–
c1ncc(-c2cc(C3CCNCC3)n[nH]2)s1	11.1	–

Structure (SMILES)	inhibition at 20 µM (MV4-11) [%]	other results
c1ccc(-c2cc(C3CCNCC3)n[nH]2)cc1	0.3	–
Nc1ncc(-c2cc(C3CCNCC3)n[nH]2)cn1	37.9	–
Cc1cc(F)ccc1-c1cc(C2CCNCC2)n[nH]1	31.2	–
FC(F)(F)c1ccc(-c2cc(C3CCNCC3)n[nH]2)cc1	36	–
Fc1cc(F)cc(-c2cc(C3CCNCC3)n[nH]2)c1	2.1	–
Fc1cnccc1-c1cc(C2CCNCC2)n[nH]1	0.1	Activity (RAW264.7 [3]): Non-Toxic; Activity (RAW264.7 [1]): inactive
Cc1cc(-c2cc(C3CCNCC3)n[nH]2)cc(C)n1	0.2	–
O=[N+]([O-])c1ccc(-c2cc(C3CCNCC3)n[nH]2)cc1	4.6	–
C[C@@H]1C[C@H]2[C@@H]3CCC4=CC(=O)C=C[C@]4(C)[C@@]3(F)[C@@H](O)C[C@]2(C)[C@@]1(O)C(=O)CO	–	Activity (Mus musculus [4]): Active; Activity (Mus musculus [5]): Active; Activity (Mus musculus [6]): Active; Activity (Mus musculus [7]): Active; Activity (Mus musculus [8]): Active; Activity (Mus musculus [9]): Active; Activity (Mus musculus [10]): Active; Activity (Mus musculus [11]): Active; Activity (Mus musculus [12]): Active; Activity (Mus musculus [13]): Active; Activity (Mus musculus [14]): Active; Activity (RAW264.7 [15]): Active; Activity (Mus musculus [16]): Active; Activity (Mus musculus [17]): Active
Fc1ccc(-c2cc(C3CCNCC3)n[nH]2)cc1F	6.4	–
CN(C)c1cc(-c2cc(C3CCNCC3)n[nH]2)ccn1	56.9	–
Fc1ccc(-c2cc(C3CCNCC3)n[nH]2)cc1	0.1	–
Clc1cc(-c2cc(C3CCNCC3)n[nH]2)cc(Cl)n1	22.1	–
Fc1cc(-c2cc(C3CCNCC3)n[nH]2)cc(F)c1F	3.4	–
Nc1cc(-c2cc(C3CCNCC3)n[nH]2)ccn1	33.3	Activity (RAW264.7 [3]): Non-Toxic; Activity (RAW264.7 [1]): inactive
FC(F)(F)c1cc(-c2cc(C3CCNCC3)n[nH]2)ccn1	52.5	–
c1cnc(-c2cc(C3CCNCC3)n[nH]2)cn1	0.1	–
Nc1ncccc1-c1cc(C2CCNCC2)n[nH]1	15.2	–
c1cc(-c2cc(C3CCNCC3)[nH]n2)ccn1	–	Activity (RAW264.7 [3]): Non-Toxic
Nc1ccc(-c2cc(C3CCNCC3)n[nH]2)cn1	35	–
Brc1cnccc1-c1cc(C2CCNCC2)n[nH]1	6.1	–

Source: ChEMBL document CHEMBL5537205, “Discovery of D25, a Potent and Selective MNK Inhibitor for Sepsis-Associated Acute Spleen Injury” (J Med Chem, 2024)
